Measured values taken from US20190374526A1, “Substituted Heterocyclic Compounds as Inhibitors of PRDM9” (Merck Sharp & Dohme Corp., priority 2018, published 2019).
Counter-ions that a name gives are not always drawn.

What follows are molecules tested against T1, hPRDM9 (amino acids 195-385) (Homo sapiens, UniProt Q9NQV7) (assay: PRDM9 biochemical assay (radiometric, 3[H] methyl transfer from SAM to biotinylated histone H3 peptide)). Details: 1 nM hPRDM9, 1 μM biotinylated H3(1-25)K4 peptide, 5 μM 3[H]-SAM, 55 μM un-labeled SAM, 25° C., 30 minutes.
T1 construct: 1.25 nM hPRDM9 (amino acids 195-385)
T1 sequence (Q9NQV7 195-385): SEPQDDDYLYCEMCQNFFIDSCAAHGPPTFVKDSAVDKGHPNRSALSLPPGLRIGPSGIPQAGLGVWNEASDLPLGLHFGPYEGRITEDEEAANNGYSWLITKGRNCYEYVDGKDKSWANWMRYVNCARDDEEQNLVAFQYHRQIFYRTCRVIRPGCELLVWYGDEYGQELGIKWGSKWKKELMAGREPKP
Method in brief: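 Radiometric assay of ³H-methyl transfer to biotinylated H3(1-25)K4 peptide, with final concentrations 1 nM hPRDM9 (195-385), 1 μM peptide, 5 μM ³H-SAM and 55 μM unlabeled SAM. Run in pH 8.5 Tris buffer for 30 min at 25° C, quenched with guanidine-HCl and captured on streptavidin Flashplates. IC50 from four-parameter fit relative to 0.5% DMSO controls.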

`Cc1cc(N2CC3(CC(NC(=O)Nc4cc(Cl)cc(Cl)c4)C3)C2)ccn1` [Compound 239, 1-(3,5-dichlorophenyl)-3-(2-(2-methylpyridin-4-yl)-2-azaspiro[3.3]heptan-6-yl)urea] and `Cc1cc(N2CC3(CCCN(C(=O)Nc4cc(Cl)cc(Cl)c4)C3)C2)ccn1` [Compound 240] cannot be ordered by IC50: no less than 50000 nM for the first, no less than 50000 nM for the second.

Going from `CCN1CCN(c2nc(-c3cc(OC)cc(OC)c3)no2)CC12CCN(c1ccnc(C)c1)CC2` [Compound 242, 3-(3,5-dimethoxyphenyl)-5-(1-ethyl-9-(2-methylpyridin-4-yl)-1,4,9-triazaspiro[5.5]undecan-4-yl)-1,2,4-oxadiazole] to `COc1cc(CN)cc(-c2noc(N3CCN(C)C4(CCN(c5ccnc(C)c5)CC4)C3)n2)c1` [Compound 243, (3-methoxy-5-(5-(1-methyl-9-(2-methylpyridin-4-yl)-1,4,9-triazaspiro[5.5]undecan-4-yl)-1,2,4-oxadiazol-3-yl)phenyl)methanamine], the IC50 falls from 155 nM to 103 nM (1.5-fold). The second is the more potent here.

First: COc1cc(CN(C)C)cc(-c2noc(N3CCN(C)C4(CCN(c5ccnc(C)c5)CC4)C3)n2)c1 [Compound 244, 1-(3-methoxy-5-(5-(1-methyl-9-(2-methylpyridin-4-yl)-1,4,9-triazaspiro[5.5]undecan-4-yl)-1,2,4-oxadiazol-3-yl)phenyl)-N,N-dimethylmethanamine]
Second: CNCc1cc(OC)cc(-c2noc(N3CCN(C)C4(CCN(c5ccnc(C)c5)CC4)C3)n2)c1 [Compound 245, 1-(3-methoxy-5-(5-(1-methyl-9-(2-methylpyridin-4-yl)-1,4,9-triazaspiro[5.5]undecan-4-yl)-1,2,4-oxadiazol-3-yl)phenyl)-N-methylmethanamine, HCl]
The IC50 of the first is 1.6-fold higher: 131 nM for the first, 83 nM for the second. The second is the more potent here.

Compared with `COc1cc(C(N)=O)cc(-c2noc(N3CCN(C)C4(CCN(c5ccnc(C)c5)CC4)C3)n2)c1` [Compound 246, 3-methoxy-5-(5-(1-methyl-9-(2-methylpyridin-4-yl)-1,4,9-triazaspiro[5.5]undecan-4-yl)-1,2,4-oxadiazol-3-yl)benzamide], `COc1cc(OC)cc(-c2noc(NCC3(O)CN(c4ccnc(C)c4)C3)n2)c1` [Compound 247, 3-(((3-(3,5-dimethoxyphenyl)-1,2,4-oxadiazol-5-yl)amino)methyl)-1-(2-methylpyridin-4-yl)azetidin-3-ol] is 7.8-fold higher in IC50: 83 nM for the first, 650 nM for the second.
